ChEMBL document CHEMBL2434945, “Anti-inflammatory constituents from the fruits of Vitex rotundifolia” (Bioorg Med Chem Lett, 2013)
pIC50: −log10 of the molar value.

What was measured:
[1] = Cytotoxicity against mouse RAW264.7 cells assessed as cell viability by colorimetric method relative to control; assay type: cell-based; parameters: concentration or dose not given beside the values; conditions: read-out: Activity
RAW264.7 = assay: Antiinflammatory activity against mouse RAW264.7 cells assessed as inhibition of LPS-induced NO production after 24 hrs by Griess method; assay type: functional, cell-based; conditions: RAW264.7, 24 h

pIC50 (RAW264.7)	Structure (SMILES)	viability [1]
< 4.30	CC(=O)O[C@H]1CC[C@@]2(C)[C@@H](CC[C@@H](C)[C@]23CCC(=O)O3)C1(C)C [VITEDOIN B]	> 90%
4.38	C[C@@H]1CC[C@H]2C(C)(C)CCC[C@]2(C)[C@@]12CC/C(=C\C=O)O2	> 90%
< 4.30	CC(C)(O)c1ccc2c(c1)CC[C@H]1C(C)(C)[C@@H](O)CC[C@]21C	> 90%
4.61	C=CC(C)(O)CC[C@@]1(C)C2=C([C@H](OC(C)=O)[C@H](OC(C)=O)[C@H]1C)C(C)(C)CCC2 (some centres undefined) [VITETRIFOLIN D]	> 90%

Continued, compound first:

Structure (SMILES)	pIC50 (RAW264.7)	viability [1]
CC(=O)O[C@@H]1C[C@@H](C)[C@](O)(CCC2=CC(=O)OC2)[C@@]2(C)CCCC(C)(C)[C@H]12 [VITEXILACTONE]	4.37	> 90%
COc1ccc(-c2oc3cc(OC)c(OC)c(O)c3c(=O)c2OC)cc1O [CASTICIN]	4.67	> 90%
N=C(N)NN [PIMAGEDINE]		> 90%
COc1cc(C[C@H]2CO[C@H](c3ccc(O)c(OC)c3)[C@H]2CO)ccc1O [LARICIRESINOL]	< 4.30	> 90%
CC(=O)O[C@@H]1C[C@@H](C)[C@](O)(CCC2=CC(=O)OC2O)[C@@]2(C)CCCC(C)(C)[C@H]12 (some centres undefined) [VITEAGNUSIN I]	4.95	> 90%
COc1cc([C@H]2Oc3c(OC)cc(CCCO)cc3[C@@H]2CO)ccc1O [DIHYDRODEHYDRODICONIFERY ALCOHOL]	4.41	> 90%
